Read-outs that look alike come from different tables or passages of the source. Marks after values point to notes of the source that are not given here.
Experiments:
Type in all cases: in vivo
[1] = test system: Phytophthora infestans (the causal agent of tomato late blight); conditions: sprayed 17 h after inoculation, 100 = 100% disease control, 0 = no control
[2] = test system: Plasmopara viticola (the causal agent of grape downy mildew); assay: Test A: grape downy mildew, grape seedlings inoculated then sprayed with test suspension, visual disease rating; conditions: 100 = 100% disease control, 0 = no control relative to controls
Text: General protocol for preparing test suspensions for Tests A-B2: The test compounds were first dissolved in acetone in an amount equal to 3% of the final volume and then suspended at the desired concentration (in ppm) in acetone and purified water (50/50 mix by volume) containing 250 ppm of the surfactant Trem® 014 (polyhydric alcohol esters). The resulting test suspensions were then used in Tests A-B2. Spraying a 200 ppm test suspension to the point of run-off on the test plants was the equivalent of a rate of 800 g/ha.
Grape seedlings were inoculated with a spore suspension of Plasmopara viticola (the causal agent of grape downy mildew) and incubated in a saturated atmosphere at 20° C. for 24 h. After a short drying period, the grape seedlings were sprayed with the test suspension to the point of run-off, then moved to a growth chamber at 20° C. for 5 days, and then back into a saturated atmosphere at 20° C. for 24 h. Upon removal, visual disease ratings were made.
Results for Tests A-B2 are given in Table A. In the Table, a rating of 100 indicates 100% disease control and a rating of 0 indicates no disease control (relative to the controls). All results are for 10 ppm except where followed by an “*” which indicates 40 ppm and “**” which indicates 200 ppm.

[3] = test system: Phytophthora infestans (the causal agent of tomato late blight); conditions: sprayed the day before inoculation, 100 = 100% disease control, 0 = no control

| Molecule | Test B2 rating (disease control) ([1]; test suspension 40 ppm (*)) | Test A rating (disease control) ([2]; test suspension 40 ppm (*)) | Test B1 rating (disease control) ([3]; test suspension 40 ppm (*)) | Test B2 rating (disease control) ([1]; test suspension 10 ppm) [%] | Test A rating (disease control) ([2]; test suspension 10 ppm) [%] | Test B1 rating (disease control) ([3]; test suspension 10 ppm) [%] | also measured |
| --- | --- | --- | --- | --- | --- | --- | --- |
| CN(CC(=O)N1CCC(c2nc(C3=NOC(c4c(F)cccc4F)C3)cs2)CC1)N=CC(F)(F)F (stereo not drawn) [Compound 35] | 99* % | 100* % | 100* % |  |  |  |  |
| CCCC=NOCC(=O)N1CCC(c2nc(C3=NOC(c4c(F)cccc4F)C3)cs2)CC1 (racemic) [compound 10] |  |  |  | 88 | 98 | 95 |  |
| CC(CC(F)(F)F)=NOCC(=O)N1CCC(c2nc(C3=NOC(c4c(F)cccc4F)C3)cs2)CC1 (racemic) [compound 26] |  |  |  | 99 | 100 | 100 |  |
| 1-[4-[4-[5-(2,6-difluorophenyl)-4,5-dihydro-3-isoxazolyl]-2-thiazolyl]-1-piperidinyl]-2-(4,5-dihydro-3,5-dimethyl-1H-pyrazol-1-yl]ethanone [Compound 40] |  |  |  | 98 | 100 | 100 |  |
| Cn1c(=O)n(C2CC(c3csc(C4CCN(C(=O)CON=CC(F)(F)F)CC4)n3)=NO2)c2ccccc21 (stereo not drawn) [compound 48] |  |  |  | 99 | 100 | 100 |  |
| CC(CC(C)C)=NOCC(=O)N1CCC(c2nc(C3=NOC(c4c(F)cccc4F)C3)cs2)CC1 (racemic) [compound 25] | 58* % | 93* % | 100* % |  |  |  |  |
| C[C@H](c1ccccc1)N(C)C(=O)c1csc(C2CCN(C(=O)CON=CC(F)(F)F)CC2)n1 [Compound 31, N-methyl-N-[(1R)-1-phenylethyl]-2-[1-[2-[[(2,2,2-trifluoroethylidene)amino]oxy]acetyl]-4-piperidinyl]-4-thiazolecarboxamide] | 99* % | 100* % | 100* % |  |  |  |  |
| O=C(CON=CC(F)(F)F)N1CCC(c2nc(C3=NOC(c4c(F)cccc4F)C3)cs2)CC1 (stereo not drawn) [Compound 3, 2,2,2-trifluoroacetaldehyde, O-[2-[4-[4-[5-(2,6-difluorophenyl)-4,5-dihydro-3-isoxazolyl]-2-thiazolyl]-1-piperidinyl]-2-oxoethyl]oxime] |  |  |  | 99 | 100 | 100 |  |
| CC(C)=NOCC(=O)N1CCC(c2nc(C(=O)N(C)[C@H](C)c3ccccc3)cs2)CC1 [compound 15] | 91* % | 99* % | 39* % |  |  |  |  |
| CC1=NN(CC(=O)N2CCC(c3nc(C4=NOC(c5c(F)cccc5F)C4)cs3)CC2)C(C)(C)C1 (stereo not drawn) [compound 46] | 81* % | 9* % | 90* % |  |  |  |  |
| CC(=NOCC(=O)N1CCC(c2nc(C3=NOC(n4c(=O)n(C)c5ccccc54)C3)cs2)CC1)C(F)(F)F (stereo not drawn) [compound 49] |  |  |  | 99 | 100 | 100 |  |
| O=C(CONC(=O)C(F)(F)F)N1CCC(c2nc(C3=NOC(c4c(F)cccc4F)C3)cs2)CC1 (stereo not drawn) [Compound 38] | 99* % | 99* % | 100* % | 90 | 98 | 90 |  |
| CC(=NOCC(=O)N1CCC(c2nc(C3=NOC(N4C(=O)c5ccccc5C4=O)C3)cs2)CC1)C(F)(F)F (stereo not drawn) [compound 44] |  |  |  | 99 | 100 | 100 |  |
| CC(C)=NOCC(=O)N1CCC(c2nc(C3=NOC4(CCc5ccccc54)C3)cs2)CC1 (stereo not drawn) [compound 13] |  |  |  | 99 | 99 | 99 |  |
| CN(CC(=O)N1CCC(c2nc(C3=NOC(c4c(F)cccc4F)C3)cs2)CC1)NC(=O)C(F)(F)F (stereo not drawn) [Compound 36, 2,2,2-trifluoroacetic acid 2-[2-[4-[5-(2,6-difluorophenyl)-4,5-dihydro-3-isoxazolyl]-2-thiazolyl-1-piperidinyl]-2-oxoethyl]-2-methylhydrazide] |  |  |  |  |  |  | Test B2 rating (disease control) ([1]; test suspension 200 ppm (**)): 93** %; Test A rating (disease control) ([2]; test suspension 200 ppm (**)): 60** %; Test B1 rating (disease control) ([3]; test suspension 200 ppm (**)): 100** % |
| N#Cc1ccccc1C1CC(c2csc(C3CCN(C(=O)CON=CC(F)(F)F)CC3)n2)=NO1 (racemic) [compound 20] |  |  |  | 99 | 100 | 100 |  |
| CN1C(=O)c2ccccc2C12CC(c1csc(C3CCN(C(=O)CON=CC(F)(F)F)CC3)n1)=NO2 (stereo not drawn) [compound 47] |  |  |  | 99 | 100 | 100 |  |

| Molecule | Test B2 rating (disease control) ([1]; test suspension 40 ppm (*)) | Test A rating (disease control) ([2]; test suspension 40 ppm (*)) | Test B1 rating (disease control) ([3]; test suspension 40 ppm (*)) | Test B2 rating (disease control) ([1]; test suspension 10 ppm) [%] | Test A rating (disease control) ([2]; test suspension 10 ppm) [%] | Test B1 rating (disease control) ([3]; test suspension 10 ppm) [%] | also measured |
| --- | --- | --- | --- | --- | --- | --- | --- |
| CCC(ON=C(C)C)C(=O)N1CCC(c2nc(C3=NOC(c4c(F)cccc4F)C3)cs2)CC1 (mixture of isomers) [compound 39] | 99* % | 100* % | 100* % |  |  |  |  |
| N#CC(C#N)=NOCC(=O)N1CCC(c2nc(C3=NOC(c4c(F)cccc4F)C3)cs2)CC1 (stereo not drawn) [compound 51] |  |  |  | 99 | 99 | 100 |  |
| CC(C)(C)OC(=O)NCCC(=O)N1CCC(c2nc(C3=NOC(c4c(F)cccc4F)C3)cs2)CC1 (racemic) [compound 33] |  |  |  |  |  |  | Test B2 rating (disease control) ([1]; test suspension 200 ppm (**)): 0** %; Test A rating (disease control) ([2]; test suspension 200 ppm (**)): 0** %; Test B1 rating (disease control) ([3]; test suspension 200 ppm (**)): 68** % |
| CC(C)C=NOCC(=O)N1CCC(c2nc(C3=NOC(c4c(F)cccc4F)C3)cs2)CC1 (racemic) [compound 27] | 99* % | 98* % | 100* % |  |  |  |  |
| CC=NOCC(=O)N1CCC(c2nc(C3=NOC(c4c(F)cccc4F)C3)cs2)CC1 (racemic) [compound 22] |  |  |  | 99 | 100 | 100 |  |
| O=C(CCNC(=O)C(F)(F)F)N1CCC(c2nc(C3=NOC(c4c(F)cccc4F)C3)cs2)CC1 (racemic) [compound 34] |  |  |  |  |  |  | Test B2 rating (disease control) ([1]; test suspension 200 ppm (**)): 40** %; Test A rating (disease control) ([2]; test suspension 200 ppm (**)): 33** %; Test B1 rating (disease control) ([3]; test suspension 200 ppm (**)): 97** % |
| CC(C)=NOCC(=O)N1CCC(c2nc(C3=NOC(N4C(=O)c5ccccc5C4=O)C3)cs2)CC1 (stereo not drawn) [compound 45] |  |  |  | 99 | 96 | 95 |  |
| CC(=NOCC(=O)N1CCC(c2nc(C3=NOC4(C3)c3ccccc3C(=O)N4C)cs2)CC1)C(F)(F)F (stereo not drawn) [compound 50] |  |  |  | 99 | 100 | 100 |  |
| CCC=NOCC(=O)N1CCC(c2nc(C3=NOC(c4c(F)cccc4F)C3)cs2)CC1 (racemic) [compound 30] | 99* % | 100* % | 100* % |  |  |  |  |
| CCC(=NOCC(=O)N1CCC(c2nc(C3=NOC(c4c(F)cccc4F)C3)cs2)CC1)C(F)(F)F (racemic) [compound 23] |  |  |  | 83 | 98 | 99 |  |
| CSC(C)=NOCC(=O)N1CCC(c2nc(C3=NOC(c4c(F)cccc4F)C3)cs2)CC1 (racemic) [compound 12] |  |  |  | 0 | 17 | 47 |  |
| CSC(=NOCC(=O)N1CCC(c2nc(C3=NOC(c4c(F)cccc4F)C3)cs2)CC1)C(=O)N(C)C (racemic) [compound 11] |  |  |  | 0 | 0 | 26 |  |
| CCC(C)=NOCC(=O)N1CCC(c2nc(C3=NOC(c4c(F)cccc4F)C3)cs2)CC1 (racemic) [compound 16] |  |  |  | 99 | 100 | 100 |  |
| CC(C)CC=NOCC(=O)N1CCC(c2nc(C3=NOC(c4c(F)cccc4F)C3)cs2)CC1 (racemic) [compound 28] | 68* % | 98* % | 95* % |  |  |  |  |
| CC(=NOCC(=O)N1CCC(c2nc(C3=NOC(c4c(F)cccc4F)C3)cs2)CC1)C(F)(F)F (racemic) [Compound 4] |  |  |  | 99 | 100 | 100 |  |
| O=C(CON=CC(F)(F)F)N1CCC(c2nc(C3=NOC4(CCc5ccccc54)C3)cs2)CC1 (stereo not drawn) [compound 29] |  |  |  | 99 | 100 | 100 |  |

Source: patent US8618137B2 (priority 2008, dated 2013)
